Source: US20050004018A1, “Use of antitumoral compound in cancer therapy” (priority 2001, published 2005)
Read-outs that look alike come from different tables or passages of the source.

Legend:
[1] = tested on: cancer patients; experiment: phase II programme, 24 hour every 3 weeks schedule; assay type: in vivo, human
Description: Two schedules (24 hour every 3 weeks and 3 hour every 3 weeks) reached the phase II programme. The phase II programme confirmed the activity against soft tissue sarcoma and ovarian cancer. However, the recommended starting dose for the 3 hour schedule had to be reduced because of serious toxicity. The recommended dose for the 24 hour schedule was 1500 μg /m^2 and the recommended dose for the 3 hour schedule is at present 1300 μg/m^2.
The 3 hour every three weeks schedule has the signifcant advantage of being more confortable for the patient because it reduces the time being spent at the hospital for infusion and monitoring, in particular avoiding overnight stay.

[2] = tested on: cancer patients; experiment: phase I clinical trial, 3 hours iv infusion weekly for 3 consecutive weeks every 4 weeks; assay type: in vivo, human
Description: A phase I clinical trial was carried out with the following protocol:
Dose schedule: ET-743 will be administered every week as a 3hours iv infusion for 3 consecutive weeks every 4 weeks.
Starting dose and dose escalation: The starting dose will be 300 μg/m^2 weekly of ET-743 given as a intravenous infusion over 3 hours for 3 consecutive weeks every 4 weeks. Patients will be sequentially enrolled into the following dose cohorts beginning at dose Level 1. A minimum cohort size of 3 patients will be treated at each of the dose levels.
Accrual at the next higher dose level: At least 1 patient at each dose level must have completed 1 cycle of therapy and two patients must have completed treatment on day 15 before a new patient can be treated at the next highest dose. Conditions for retreatment: Patients are eligible for retreatment […] intolerable toxicity, the patient desires further treatment, and fulfill the eligibility criteria. Dose Limiting Toxicities (DLTs)
Dose limiting toxicities (DLT) will be defined as follows: • ANC <500/μL for longer than 5 days. • ANC <500/μL accompanied by fever (at least 100.5° F.). • Platelets <25,000/μL. • Any grade 3-4 nonhematological toxicity except nausea/vomiting (provided the patient is receiving an optimal antiemetic regimen consisting of dexamethasone and a serotonin antagonist on an optimal dose-schedule for prophylaxis and management), alopecia. Grade 3 or 4 elevation in trasaminases that result in either omission of 2 scheduled treatments within a cycle or delay in the initiation of a subsequent course exceeding 2 weeks. • Missing at least 2 scheduled treatments during a single course due to drug-induced toxicity (missed doses will not be made up). • Delay in the initiation of a subsequent course of treatment exceeding 2 weeks. Determination of the Maximum Tolerated Dose (MTD)
Cohort of 3 patients will be treated at each dose level. If no DLT is seen during the first cycle in the cohort of patients at any given dose level, new patients may be treated at the next higher level.
If any patient encounters drug-induced DLT during either cycle 1 or 2, a maximum of 6 patients may be treated at that level. If DLT is not observed in the additional patients, new patients may be treated at the next higher dose level.
If at least 2 patients experience DLT at any given dose level, this dose level will be considered the Maximum Tolerated Dose (MTD). However, it is possible that additional patients may experience DLT due to the timing of patient enrollment into that dose level.
Once an MTD level is established, subsequent patients should be treated at the next lower dose level. Intermediate doses may be used in some instances and flexibility is an integral part of the protocol. If two or more patients experience DLT at the lower dose level, then the MTD has again been established and additional patients will be treated at the next lower dose (unless sufficient numbers of patients have already been treated at that dose level).
The RD is defined as the highest dose level at which less than 2 of 6 patients experience DLT during cycles 1 or 2. At the RD, sufficient numbers of patients will be accrued so at least 6 patients receive at least 2 cycles of therapy, and at least 4 patients receive at least 4 courses of treatment.
This trial was launched in May 00 and last patient was included in March 02. 31 patients were treated.
Tumours included: Sarcomas (19), UOT (1), Lung (1), Ovary (4), Breast (2), Uterus (1), Melanoma (2), Colorectal (1)

[3] = tested on: cynomolgus monkeys; conditions: cited from earlier work
[4] = 24 hour infusion, worst grade per patient
[5] = 24 h schedule every three weeks
[6] = Per patient (24 h), number (percent)
[7] = 3 hour weekly ×3/4 weeks infusion, per patient, number (%)

ecteinascidin 743 [ET-743]
Alk Phosph, NCI-CTC Grade 1 [1, 4]: 149 (46.7) Number of patients (%) | Alk Phosph, NCI-CTC Grade 2 [1, 4]: 29 (9.1) Number of patients (%) | Alk Phosph, NCI-CTC Grade 3 [1, 4]: 6 (1.9) Number of patients (%) | Bilirubin, NCI-CTC Grade 1 [1, 4]: 49 (15.3) Number of patients (%) | Bilirubin, NCI-CTC Grade 2 [1, 4]: 23 (6.9) Number of patients (%) | Bilirubin, NCI-CTC Grade 3 [1, 4]: 4 (1.3) Number of patients (%) | Gamma GT, NCI-CTC Grade 1 [1, 4]: 25 (22.9) Number of patients (%) | Gamma GT, NCI-CTC Grade 2 [1, 4]: 29 (26.6) Number of patients (%) | Gamma GT, NCI-CTC Grade 3 [1, 4]: 32 (29.4) Number of patients (%) | Gamma GT, NCI-CTC Grade 4 [1, 4]: 2 (1.8) Number of patients (%) | Hemoglobin, NCI-CTC Grade 0-1 [1, 4]: 165 (51.6) Number of patients (%) | Hemoglobin, NCI-CTC Grade 2 [1, 4]: 111 (34.7) Number of patients (%) | Hemoglobin, NCI-CTC Grade 3 [1, 4]: 33 (10.3) Number of patients (%) | Hemoglobin, NCI-CTC Grade 4 [1, 4]: 11 (3.4) Number of patients (%) | Neutrophils, NCI-CTC Grade 0-1 [1, 4]: 103 (32.3) Number of patients (%) | Neutrophils, NCI-CTC Grade 2 [1, 4]: 54 (16.9) Number of patients (%) | Neutrophils, NCI-CTC Grade 3 [1, 4]: 92 (28.8) Number of patients (%) | Neutrophils, NCI-CTC Grade 4 [1, 4]: 70 (21.9) Number of patients (%) | Platelets, NCI-CTC Grade 0-1 [1, 4]: 260 (81.5) Number of patients (%) | Platelets, NCI-CTC Grade 2 [1, 4]: 17 (5.3) Number of patients (%) | Platelets, NCI-CTC Grade 3 [1, 4]: 35 (11.0) Number of patients (%) | Platelets, NCI-CTC Grade 4 [1, 4]: 7 (2.2) Number of patients (%) | SGOT/AST, NCI-CTC Grade 1 [1, 4]: 74 (23.2) Number of patients (%) | SGOT/AST, NCI-CTC Grade 2 [1, 4]: 88 (27.6) Number of patients (%) | SGOT/AST, NCI-CTC Grade 3 [1, 4]: 120 (37.6) Number of patients (%) | SGOT/AST, NCI-CTC Grade 4 [1, 4]: 16 (5.0) Number of patients (%) | SGPT/ALT, NCI-CTC Grade 1 [1, 4]: 62 (19.4) Number of patients (%) | SGPT/ALT, NCI-CTC Grade 2 [1, 4]: 83 (25.9) Number of patients (%) | SGPT/ALT, NCI-CTC Grade 3 [1, 4]: 127 (39.7) Number of patients (%) | SGPT/ALT, NCI-CTC Grade 4 [1, 4]: 30 (9.4) Number of patients (%) | recommended dose ([1]; 24 hour schedule, phase II): 1500 μg /m^2 | Grade 3-4 ALT [1, 5]: 49.1% | Grade 3-4 Bilirubin [1, 5]: 1.3% | Grade 3-4 Creatinine [1, 5]: 0.7% | Grade 3-4 Creatinine Kinase [1, 5]: 2.2% | Grade 3-4 Hemoglobin [1, 5]: 13.7% | Grade 3-4 Neutrophils [1, 5]: 50.7% | Grade 3-4 Platelets [1, 5]: 13.2% | Creatinine abnormalities, NCI-CTC Grade 1 [1, 6]: 76 (23.9) | Creatinine abnormalities, NCI-CTC Grade 2 [1, 6]: 19 (6.0) | Creatinine abnormalities, NCI-CTC Grade 3 [1, 6]: 3 (0.9) | Creatinine abnormalities, NCI-CTC Grade 4 [1, 6]: 2 (0.6) | Grades 1-3 of bilirubin ([1]; over 24 hours, % of patients): 23.8% | alkaline phosphatase overall ([1]; over 24 hours, % of patients): 57.7% | G3 transaminases ([2]; 29 patients evaluated): 10% | ALT G2(%) [2, 7]: 9(31) % | ALT G3(%) [2, 7]: 3(10.3) % | ALT G4(%) [2, 7]: 0% | Alk Phos G2(%) [2, 7]: 1(3.4) % | Alk Phos G3(%) [2, 7]: 2(6.9) % | Alk Phos G4(%) [2, 7]: 0% | Bilirubin G2(%) [2, 7]: 0% | Bilirubin G3(%) [2, 7]: 1(3.4) % | Bilirubin G4(%) [2, 7]: 0% | Creatine Kinase G2(%) [2, 7]: 1(3.4) % | Creatine Kinase G3(%) [2, 7]: 0% | Creatine Kinase G4(%) [2, 7]: 1(3.4) % | Creatinine G2(%) [2, 7]: 1(3.4) % | Creatinine G3(%) [2, 7]: 0% | Creatinine G4(%) [2, 7]: 0% | Hemoglobin G2(%) [2, 7]: 9(31) % | Hemoglobin G3(%) [2, 7]: 1(3.4) % | Hemoglobin G4(%) [2, 7]: 0% | Neutrophils G2(%) [2, 7]: 1(3.4) % | Neutrophils G3(%) [2, 7]: 2(6.9) % | Neutrophils G4(%) [2, 7]: 1(3.4) % | Platelets G2(%) [2, 7]: 1(3.4) % | Platelets G3(%) [2, 7]: 0% | Platelets G4(%) [2, 7]: 0% | Grade 3-4 ALT ([2]; Weekly schedule): 10.3% | Grade 3-4 Bilirubin ([2]; Weekly schedule): 3.4% | Grade 3-4 Creatinine ([2]; Weekly schedule): 0% | Grade 3-4 Creatinine Kinase ([2]; Weekly schedule): 3.4% | Grade 3-4 Hemoglobin ([2]; Weekly schedule): 3.4% | Grade 3-4 Neutrophils ([2]; Weekly schedule): 10.3% | Grade 3-4 Platelets ([2]; Weekly schedule): 0% | Serious renal toxicity (G3-4) ([2]; Weekly schedule): has not been seen | DLT defining the MTD ([2]; at the 4th level (650)): Long lasting grade 3 neutropenia, and g3 Bilirubin toxicity | long lasting stabilizations ([2]; ovarian cancer): 2 | minor responses ([2]; patients with sarcoma): 2 | grade 3-4 neutropenia ([2]; per patient, 29 patients evaluated): 10.3% | long lasting stabilizations ([2]; sarcoma): 2 | reduction of the most frequent toxicities ([2]; weekly schedule vs previous schedules): more than 3 times | MTD ([2]; weekly×3/4 weeks, 3 hour infusion): 650 mcg/sm | recommended dose ([2]; ×3 every 4 weeks, 3 hour infusion): 580 mcg/sm | toxicity ([3]; fractionated dosing): only minor toxicity | toxicity ([3]; single doses): hepatic and hematological toxicity, emesis and diarrhoea
